≈ marks a conversion by molar mass, not a printed value.
Test system: S. epidermidis (ATCC 17749)
Experiment: Antibacterial activity, microplate assay
Type: cell-based
Conditions: Staphylococcus epidermidis, ATCC17749

| MIC [µg/mL] | Structure (SMILES) |
| --- | --- |
| 0.195 (≈ 0.589 µM) | O=C(O)c1cn(C2CC2)c2cc(N3CCNCC3)c(F)cc2c1=O [ciprofloxacin] |

Biological target: α-glucosidase
Experiment: Inhibitory activity against α-glucosidase (PNPG, 405 nm)
Conditions: read-out: α-glucosidase inhibitory activity IC50; 37 °C, pH 6.8, PNPG substrate

| IC50 [µM] | Structure (SMILES) |
| --- | --- |
| 380 | COc1c(O)ccc2c1C(=O)O[C@H](CCCC(C)=O)C2 [Compound 18, peniciisocoumarin D] |
| 100 | CC(O)CCCC1Cc2c(ccc(O)c2O)C(=O)O1 (centres unmarked) [Compound 10, 5,6-dihydroxy-3-(4-hydroxypentyl)-isochroman-1-one] |
| 540 | COc1c(C)c(O)cc2cc(C[C@H](C)O)oc(=O)c12 [Compound 23, pestalotiorin] |
| 620 | COC(=O)CC[C@@H]1Cc2ccc(OC)c(O)c2C(=O)O1 [Compound 21, penicimarin N] |

Test system: not listed separately
Experiment: Antioxidant activity assay (ABTS working solution, 734 nm)
Conditions: not given
Method: The antioxidant activity assay was based on the reported methods. The assay was performed on a 96-well microplate, the reaction was initiated by adding 10 µL of sample solution to 200 µL of ABTS working solution. […] The inhibition rate of each sample was calculated according to the following formula: inhibition rate = [(Ablank − Acompound)/Ablank] × 100%.

| Structure (SMILES) | IC50 [µM] |
| --- | --- |
| Cc1c(C)c2c(c(C)c1O)CCC(C)(C(=O)O)O2 (centres unmarked) [Trolox, trolox, reference compound] | 290 |
| COc1c(O)ccc2c1C(=O)O[C@H](CCCC(C)=O)C2 [Compound 18, peniciisocoumarin D] | 160 |
| CC(=O)OCCC[C@@H]1Cc2cccc(O)c2C(=O)O1 [Compound 19, peniciisocoumarin G] | 150 |
| COc1ccc2c(c1O)C(=O)O[C@H](CCC[C@@H](C)O)C2 [Compound 2, Talaromarin B] | 28400 |
| O=C1O[C@H](CCCO)Cc2cccc(O)c21 [Compound 7, (R)-3-(3-hydroxypropyl)-8-hydroxy-3,4-dihydroisocoumarin] | 170 |

The remaining lines, values ahead:

| IC50 [µM] | Structure (SMILES) |
| --- | --- |
| 9 | Cc1c(O)cc2cc(CC(C)O)oc(=O)c2c1O (centres unmarked) [Compound 22, 6,8-dihydroxy-3-(2-hydroxypropyl)-7-methyl-1H-isochromen-1-one] |
| 100 | COc1c(O)ccc2c1C(=O)OC(CCCO)C2 (centres unmarked) [Compound 9, 7-hydroxy-3-(3-hydroxypropyl)-8-methoxyisochroman-1-one] |
| 120 | COc1ccc(O)c2c1C(=O)O[C@H](CCCC(C)=O)C2 [Compound 17, penicimarin H] |
| 110 | CC(O)CCCC1Cc2c(ccc(O)c2O)C(=O)O1 (centres unmarked) [Compound 10, 5,6-dihydroxy-3-(4-hydroxypentyl)-isochroman-1-one] |
| 120 | CC(O)CCCC1Cc2c(O)ccc(O)c2C(=O)O1 (centres unmarked) [Compound 11, peniciisocoumarin F] |
| 130 | COc1ccc2c(c1O)C(=O)O[C@H](CCCO)C2 [Compound 8, peniciisocoumarin C] |
| 140 | CC(=O)CCC[C@@H]1Cc2ccc(O)c(O)c2C(=O)O1 [Compound 6, Talaromarin F] |

Reference: PMC9229493, “Talaromarins A–F: Six New Isocoumarins from Mangrove-Derived Fungus Talaromyces flavus TGGP35” (Marine Drugs, 2022)
